Source: ChEMBL document CHEMBL5120767, “Phlegmacaritones A and B, a Pair of Serratane-Related Triterpenoid Epimers with an Unprecedented Carbon Skeleton from Phlegmariurus carinatus” (J Nat Prod, 2022)
Activity calls are given as the source filed them. No cut-off for these calls is given here.

system: ONS; test: Effect on human ONS cells assessed as increase in alpha-tubulin intensity at 5 uM after 24 hrs by fluorescence microscopic analysis; assay type: functional, cell-based

SMILES	Activity
CC1(C)[C@H](O)CC[C@]2(C)[C@H]3CC[C@H]4[C@@](C)(CC[C@@H]5[C@]4(C)CC[C@@H](O)[C@]5(C)C(=O)O)C[C@H]3C(=O)C[C@@H]12	Active
CC1(C)[C@@H](OC(=O)CCc2ccc(O)c(O)c2)CC[C@@]2(C)[C@H]1CC[C@@]1(C)CC3CC[C@@H]4[C@](C)(CC[C@@H](O)[C@]4(C)CO)[C@H]3CC[C@@H]12 (stereo not given in full)	Active
CC1(C)[C@@H](O)CC[C@]2(C)[C@H]3CC[C@H]4[C@@](C)(CC[C@@H]5[C@]4(C)CC[C@H](O)[C@]5(C)COC(=O)CCc4ccc(O)c(O)c4)CC3=CC[C@@H]12	Active
C=C1C=C2C[C@]3(C)CC[C@H]4C(C)(C)[C@@H](O)CC[C@]4(C)[C@H]3CC[C@@H]2[C@@]2(C)CC[C@@H](O)[C@](C)(CO)[C@H]12	Active
CC1(C)[C@@H](OC(=O)CCc2ccc(O)c(O)c2)CC[C@@]2(C)[C@H]1CC[C@@]1(C)CC3CC[C@H]4C(C)(C)[C@@H](O)CC[C@]4(C)[C@H]3CC[C@@H]12 (stereo not given in full)	Active
C=C1C=C2C[C@]3(C)CC[C@@H]4[C@](C)(CC[C@@H](O)[C@]4(C)C(=O)O)[C@H]3CC[C@@H]2[C@@]2(C)CC[C@@H](O)C(C)(C)[C@H]12	Active
C=C1C=C2C[C@]3(C)CC[C@@H]4[C@](C)(CC[C@@H](O)[C@]4(C)CO)[C@H]3CC[C@@H]2[C@@]2(C)CC[C@@H](O)C(C)(C)[C@H]12	Active
C=C1C=C2C[C@]3(C)CC[C@H]4C(C)(C)[C@H](O)CC[C@]4(C)[C@H]3CC[C@@H]2[C@@]2(C)CC[C@@H](O)C(C)(C)[C@H]12	Active

system: ONS; test: Effect on human ONS cells assessed as increase in mitochondrial intensity at 5 uM after 24 hrs by fluorescence microscopic analysis; assay type: functional, cell-based

SMILES	Activity
CC1(C)[C@H](O)CC[C@]2(C)[C@H]3CC[C@H]4[C@@](C)(CC[C@@H]5[C@]4(C)CC[C@@H](O)[C@]5(C)C(=O)O)C[C@H]3C(=O)C[C@@H]12	Active
CC1(C)[C@@H](OC(=O)CCc2ccc(O)c(O)c2)CC[C@@]2(C)[C@H]1CC[C@@]1(C)CC3CC[C@@H]4[C@](C)(CC[C@@H](O)[C@]4(C)CO)[C@H]3CC[C@@H]12 (stereo not given in full)	Active
CC1(C)[C@@H](O)CC[C@]2(C)[C@H]3CC[C@H]4[C@@](C)(CC[C@@H]5[C@]4(C)CC[C@H](O)[C@]5(C)COC(=O)CCc4ccc(O)c(O)c4)CC3=CC[C@@H]12	Active
CC1(C)[C@H](O)CC[C@]2(C)[C@H]3CC[C@H]4[C@@](C)(CC[C@@H]5[C@]4(C)CC[C@@H](O)[C@]5(C)C(=O)O)C[C@@H]3C(=O)C[C@@H]12	Active
C=C1C=C2C[C@]3(C)CC[C@H]4C(C)(C)[C@@H](O)CC[C@]4(C)[C@H]3CC[C@@H]2[C@@]2(C)CC[C@@H](O)[C@](C)(CO)[C@H]12	Active
CC1(C)[C@@H](OC(=O)CCc2ccc(O)c(O)c2)CC[C@@]2(C)[C@H]1CC[C@@]1(C)CC3CC[C@H]4C(C)(C)[C@@H](O)CC[C@]4(C)[C@H]3CC[C@@H]12 (stereo not given in full)	Active
C=C1C=C2C[C@]3(C)CC[C@@H]4[C@](C)(CC[C@@H](O)[C@]4(C)C(=O)O)[C@H]3CC[C@@H]2[C@@]2(C)CC[C@@H](O)C(C)(C)[C@H]12	Active
C=C1C=C2C[C@]3(C)CC[C@@H]4[C@](C)(CC[C@@H](O)[C@]4(C)CO)[C@H]3CC[C@@H]2[C@@]2(C)CC[C@@H](O)C(C)(C)[C@H]12	Active
C=C1C=C2C[C@]3(C)CC[C@H]4C(C)(C)[C@H](O)CC[C@]4(C)[C@H]3CC[C@@H]2[C@@]2(C)CC[C@@H](O)C(C)(C)[C@H]12	Active

system: ONS; test: Effect on human ONS cells assessed as increase in LC3b intensity at 5 uM after 24 hrs by fluorescence microscopic analysis; assay type: functional, cell-based

SMILES	Activity
CC1(C)[C@H](O)CC[C@]2(C)[C@H]3CC[C@H]4[C@@](C)(CC[C@@H]5[C@]4(C)CC[C@@H](O)[C@]5(C)C(=O)O)C[C@H]3C(=O)C[C@@H]12	Active
CC1(C)[C@@H](OC(=O)CCc2ccc(O)c(O)c2)CC[C@@]2(C)[C@H]1CC[C@@]1(C)CC3CC[C@@H]4[C@](C)(CC[C@@H](O)[C@]4(C)CO)[C@H]3CC[C@@H]12 (stereo not given in full)	Active
CC1(C)[C@@H](O)CC[C@]2(C)[C@H]3CC[C@H]4[C@@](C)(CC[C@@H]5[C@]4(C)CC[C@H](O)[C@]5(C)COC(=O)CCc4ccc(O)c(O)c4)CC3=CC[C@@H]12	Active
CC1(C)[C@H](O)CC[C@]2(C)[C@H]3CC[C@H]4[C@@](C)(CC[C@@H]5[C@]4(C)CC[C@@H](O)[C@]5(C)C(=O)O)C[C@@H]3C(=O)C[C@@H]12	Active
C=C1C=C2C[C@]3(C)CC[C@H]4C(C)(C)[C@@H](O)CC[C@]4(C)[C@H]3CC[C@@H]2[C@@]2(C)CC[C@@H](O)[C@](C)(CO)[C@H]12	Active
CC1(C)[C@@H](OC(=O)CCc2ccc(O)c(O)c2)CC[C@@]2(C)[C@H]1CC[C@@]1(C)CC3CC[C@H]4C(C)(C)[C@@H](O)CC[C@]4(C)[C@H]3CC[C@@H]12 (stereo not given in full)	Active
C=C1C=C2C[C@]3(C)CC[C@@H]4[C@](C)(CC[C@@H](O)[C@]4(C)C(=O)O)[C@H]3CC[C@@H]2[C@@]2(C)CC[C@@H](O)C(C)(C)[C@H]12	Active
C=C1C=C2C[C@]3(C)CC[C@@H]4[C@](C)(CC[C@@H](O)[C@]4(C)CO)[C@H]3CC[C@@H]2[C@@]2(C)CC[C@@H](O)C(C)(C)[C@H]12	Active
C=C1C=C2C[C@]3(C)CC[C@H]4C(C)(C)[C@H](O)CC[C@]4(C)[C@H]3CC[C@@H]2[C@@]2(C)CC[C@@H](O)C(C)(C)[C@H]12	Active

system: ONS; test: Effect on human ONS cells assessed as decrease in EEA1-marked early endosomes at 5 uM after 24 hrs by fluorescence microscopic analysis; assay type: functional, cell-based

SMILES	Activity
CC1(C)[C@H](O)CC[C@]2(C)[C@H]3CC[C@H]4[C@@](C)(CC[C@@H]5[C@]4(C)CC[C@@H](O)[C@]5(C)C(=O)O)C[C@H]3C(=O)C[C@@H]12	Active
CC1(C)[C@@H](OC(=O)CCc2ccc(O)c(O)c2)CC[C@@]2(C)[C@H]1CC[C@@]1(C)CC3CC[C@@H]4[C@](C)(CC[C@@H](O)[C@]4(C)CO)[C@H]3CC[C@@H]12 (stereo not given in full)	Active
CC1(C)[C@@H](O)CC[C@]2(C)[C@H]3CC[C@H]4[C@@](C)(CC[C@@H]5[C@]4(C)CC[C@H](O)[C@]5(C)COC(=O)CCc4ccc(O)c(O)c4)CC3=CC[C@@H]12	Active
CC1(C)[C@H](O)CC[C@]2(C)[C@H]3CC[C@H]4[C@@](C)(CC[C@@H]5[C@]4(C)CC[C@@H](O)[C@]5(C)C(=O)O)C[C@@H]3C(=O)C[C@@H]12	Active
C=C1C=C2C[C@]3(C)CC[C@H]4C(C)(C)[C@@H](O)CC[C@]4(C)[C@H]3CC[C@@H]2[C@@]2(C)CC[C@@H](O)[C@](C)(CO)[C@H]12	Active
CC1(C)[C@@H](OC(=O)CCc2ccc(O)c(O)c2)CC[C@@]2(C)[C@H]1CC[C@@]1(C)CC3CC[C@H]4C(C)(C)[C@@H](O)CC[C@]4(C)[C@H]3CC[C@@H]12 (stereo not given in full)	Active
C=C1C=C2C[C@]3(C)CC[C@@H]4[C@](C)(CC[C@@H](O)[C@]4(C)C(=O)O)[C@H]3CC[C@@H]2[C@@]2(C)CC[C@@H](O)C(C)(C)[C@H]12	Active
C=C1C=C2C[C@]3(C)CC[C@@H]4[C@](C)(CC[C@@H](O)[C@]4(C)CO)[C@H]3CC[C@@H]2[C@@]2(C)CC[C@@H](O)C(C)(C)[C@H]12	Active
C=C1C=C2C[C@]3(C)CC[C@H]4C(C)(C)[C@H](O)CC[C@]4(C)[C@H]3CC[C@@H]2[C@@]2(C)CC[C@@H](O)C(C)(C)[C@H]12	Active

system: ONS; test: Effect on human ONS cells assessed as increase in EEA1-marked early endosomes at 5 uM after 24 hrs by fluorescence microscopic analysis; assay type: functional, cell-based

SMILES	Activity
CC1(C)[C@H](O)CC[C@]2(C)[C@H]3CC[C@H]4[C@@](C)(CC[C@@H]5[C@]4(C)CC[C@@H](O)[C@]5(C)CO)CC3=CC(=O)[C@@]12C	Active
C[C@@]12CC[C@@H]3[C@](C)(CC[C@@H](O)[C@]3(C)C(=O)O)[C@H]1CC[C@H]([C@@]1(C)CC[C@@H](O)[C@@]3(C)COC(=O)C[C@@H]31)C(=O)C2	Active
CC1(C)[C@@H](O)CC[C@]2(C)[C@H]3CC[C@H]4[C@@](C)(CC[C@@H]5[C@]4(C)CC[C@H](OC(=O)CCc4ccc(O)c(O)c4)[C@]5(C)CO)CC3CC[C@@H]12 (stereo not given in full)	Active
C=C1C=C2C[C@]3(C)CC[C@@H]4[C@](C)(CC[C@@H](O)[C@]4(C)CO)[C@H]3CC[C@@H]2[C@@]2(C)CC[C@@H](O)[C@](C)(CO)[C@H]12	Active
C=C1C=C2C[C@]3(C)CC[C@@H]4[C@](C)(CC[C@@H](O)[C@]4(C)CO)[C@H]3CC[C@@H]2[C@@]2(C)CC[C@@H](O)[C@@](C)(CO)[C@]12C	Active
C[C@@]12CC[C@@H]3[C@](C)(CC[C@@H](O)[C@]3(C)C(=O)O)[C@H]1CC[C@H]1[C@H](C2)C(=O)C[C@H]2[C@](C)(CO)[C@@H](O)CC[C@@]21C	Active

system: ONS; test: Effect on human ONS cells assessed as decrease in alpha-tubulin intensity at 5 uM after 24 hrs by fluorescence microscopic analysis; assay type: functional, cell-based

SMILES	Activity
CC1(C)[C@H](O)CC[C@]2(C)[C@H]3CC[C@H]4[C@@](C)(CC[C@@H]5[C@]4(C)CC[C@@H](O)[C@]5(C)C(=O)O)C[C@@H]3C(=O)C[C@@H]12	Active

system: ONS; test: Induction of phenotypical changes in human ONS cells at 5 uM after 24 hrs; assay type: functional, cell-based

SMILES	Activity
C[C@H]1CC(=O)[C@]23CCCN4CCC[C@]2(C4)C(=O)C[C@@H]3[C@H]1O	Active
CC1(C)[C@H](O)CC[C@]2(C)[C@H]3CC[C@H]4[C@@](C)(CC[C@@H]5[C@]4(C)CC[C@@H](O)[C@]5(C)C(=O)O)C[C@@H]3C(=O)C[C@@H]12	Active
C=C1C=C2C[C@]3(C)CC[C@H]4C(C)(C)[C@@H](O)CC[C@]4(C)[C@H]3CC[C@@H]2[C@@]2(C)CC[C@@H](O)[C@](C)(CO)[C@H]12	Active
